The text below walks through data of paper PMC12498288 (Frontiers in Immunology, 2025).

Where “and” joins values, the source holds several entries; their conditions need not be identical. Equal values may be shown once. Read-outs that look alike come from different tables or passages of the source.

The subject of one data set is HCoV 229E. As to the kind of experiment: Virus yield reduction assay, HCoV-229E on MRC-5 cells (RT-qPCR). Type of data set: cell-based. The settings on record: Human coronavirus 229E, MRC5, MOI 0.001, 48 h. The protocol:
The virus yield reduction assay of HCoV-229E and HCoV-OC43 was performed on MRC-5 cells seeded at 1.5x10^5 cells per well in 24-well plates 24 h prior infection with HCoV-229E (MOI 0.001) or HCoV-OC43 (MOI 0.1) for 1 h. The inoculum was completely removed, and the cells were treated with different concentrations of zapnometinib (50 µM to 0.006 µM) and a solvent control in Iscove’s Modified Dulbecco’s Medium (IMDM) containing 2% FBS, 1% Penicillin/Streptomycin at 34°C, 5% CO2 for 24 h (HCoV-OC43) or 48 h (HCoV-229E). Supernatants were harvested and the viral titer was determined by a real-time one-step multiplex RT-qPCR using specific primers targeting the N and NS2 genes for HCoV-229E and HCoV-OC43 respectively ( Supplementary Table 1 ) EC50 values were calculated based on the measured viral titers normalized to the solvent control (1% DMSO) and using the “log(inhibitor) vs. response - Variable slope (four parameters)” analysis in GraphPad Prism v9.
(Quantitative PCR measures a nucleic acid by following its amplification.)

The next data set concerns Vero cells. The conditions noted are these: Vero 24 h 5% FBS.
For data set [1], the system named is SARS-CoV-2 Omicron B1.1.592. Description: microbe, parasite or virus in culture. The data set is classed as cell-based. The conditions noted are these: Severe acute respiratory syndrome coronavirus 2, Calu-3, 24 h.
For data set [2], the system named is cytokine and chemokine levels. As to the kind of experiment: Cytokine and chemokine levels in SARS-CoV-2-infected Syrian hamsters (serum ELISA, lung RT-qPCR). The data set is classed as in vivo. The settings on record: 4 dpi, between groups after infection and treatment. The protocol:
Eleven- to thirteen-week-old male Syrian hamsters (Janvier, France) with a body weight of 113-148 g were infected on day 0 intranasally with SARS-CoV-2 (1x10^3 median tissue culture infectious dose (TCID50) BetaCoV/Munich/BavPat1/2020) in a total volume of 0.1 mL PBS divided between the nostrils. Zapnometinib (100 mg/kg) was administered p.o. at 4 or 24 h p.i. and the animals in both groups were treated thereafter with 75 mg/kg zapnometinib once daily. The animals in the control group received vehicle (5% DMSO, 15% Kolliphor, 80% PBS) 4 h p.i. and thereafter once daily. Serum samples were collected from hamsters before infection (0 dpi) and at 4 dpi, and the levels of different cytokines and chemokines (IL1-β, TNF-α, IL-6, and IP-10) were analyzed by ELISA (Assay Genie, Ireland). […] Tetramethylbenzidine (TMB) substrate was added and the color change in the wells was used as readout for the ELISA. The optical density (OD) at 450 nm was read. Cytokine and chemokine concentrations were calculated following the manufacturer’s instructions for interpolating unknown concentrations from a standard curve.
Supplementary Figure 3. […] A. Cytokine levels in serum samples collected at 0 dpi (before infection and treatment, bottom row) and 4 dpi (top row) from vehicle-treated and zapnometinib-treated Syrian hamsters from the efficacy study analyzed by ELISA are shown. […]
Background: In an ELISA, binding on a coated surface is turned into a signal by an enzyme label.

For data set [3], the system named is cytokine and chemokine gene expression. Description: LPS-induced acute lung injury (ALI) mouse model, lung cytokine/chemokine mRNA (RT2 profiler PCR array).

The EC50 is the concentration that produces a half-maximal response. A low value points to greater potency. With `O=C(O)c1ccc(F)c(F)c1Nc1ccc(I)cc1Cl` [zapnometinib], the EC50 in the data set with HCoV 229E was 26.6 µM and 10.9 µg/mL; in data set [1] it was 37.9 µM and 15.5 µg/mL. Further, the “%LDH release compared to maximum LDH release” value in the data set on Vero cells (0.39 µM) is on record as 0.35%; with Vero cells (0.78 µM) it was 0.41%; in the data set on Vero cells (1.56 µM) it was 0.41%; in the data set with Vero cells (3.13 µM), -0.37%; with Vero cells (6.25 µM), 0.02%; in the data set on Vero cells (12.50 µM), 0.31%. In addition, the “%LDH release compared to maximum LDH release” value with Vero cells (25.00 µM) stood at 0.12%; in the data set on Vero cells (50.00 µM), 0.49%; in the data set on Vero cells (75.00 µM), 0.83%; in the data set on Vero cells (100.00 µM), 1.44%. The “cytokine and chemokine levels in serum (ELISA) and lung tissue (RT-qPCR)” value in data set [2] is given as “no major differences”. Besides, the “expression of most of the 84 genes (e.g. Il1b, IL-6, ccl2, cxcl1, cxcl10, ccl3)” value in data set [3] (5 mg/kg LPS i.p., 25 mg/kg p.o. 1 h post-stimulation, lung, 6 h post treatment, vs control) is recorded as “downregulated”. The “Cxcl1 gene expression in lung tissue” value in data set [3] (25 mg/kg p.o. 1 h after LPS) is reported as “significantly reduced”. For the same molecule, the “Il6 gene expression in lung tissue” value in data set [3] (25 mg/kg p.o. 1 h after LPS) is reported as “significantly reduced”. For the same molecule, the “Tnf gene expression in lung tissue” value in data set [3] (25 mg/kg p.o. 1 h after LPS) is given as “significantly reduced”. For the same molecule, the “Ifna2 gene (IFN-α) expression” value in data set [3] (25 mg/kg p.o. 1 h after LPS, lung, p = 0.118) was “not significantly downregulated”.
